Results as given in US10201623B2, “HSP90-targeted cardiac imaging and therapy” (Memorial Sloan-Kettering Cancer Center, priority 2013, dated 2019).
Values belong to the compound of their own block, whether it stands above or below them.

How the values were obtained:
heart muscle = assay: 124I-PUH71 PET-CT cardiac imaging in patients; format: in vivo, human
Procedure: Exemplary Procedure Using ^124I-PUH71 (Compound A) The day before the administration of ^124I-PUH71, potassium iodide was administered to the subject to be imaged to minimize the amount of radioactivity in the thyroid. A dose of KI was administered before ^124I-PUH71 was injected in the vein of the arm of the subject through a catheter. A subject was typically administered one tracer-dose of ^124I-PUH71 5% ethanol and 0.9% NaCl, which is < 1/500th of the NOAEL limit derived from rodents using the cold PUH71. A dose of up to 5.5 mCi of ^124I-PUH71 were administered intravenously. ^124I-PUH71 scans were performed immediately, at 3-4 hours, 20-24 hours, and 48-72 hours after injection of the radiotracer. A 30-45 minute scanning time-period is typical for clinical PET studies. Image was acquired on a PET-CT scanner. A low-dose CT was obtained immediately prior to PET imaging; the 0-hour CT is applied to the three PET datasets rapidly-acquired during the first 30 minutes post-injection. Uptake of the PUH71 by heart muscle in 12 patients are illustrated in FIG. 2. The cardiac uptake is plotted on the y-axis, expressed in terms of the standardized uptake value (SUV), here using the SUV mean parameter. The time after injection is plotted on the x-axis, in minutes. Data shown here is from PET scans obtained 0, 10, 20 and ˜180 minutes after tracer injection. […] In 1 patient, the cardiac uptake was less distinct, but the PET imaging methodology was suboptimal compared to the other studies. […] EKG-synchronization, or ‘EKG-gating’, is standard practice in cardiac imaging, for improving the quality of heart-imaging, and it is expected that results will further improve after EKG gating is added. Without intention to be limited by theory, the bits of variation in the SUV could be due to (1) the lack of EKG-gating and (2) the lack of proper attenuation correction. […] The EKG-gating and attenuation correction techniques are standard practice in cardiac nuclear imaging art.

[1] = stability of 124I-PUH71 in formulation; format: physicochemical; conditions: formulated in 5% ethanol in saline (0.9%)
Source text: ^124I-PUH71 was produced in formulation. The radioactive half-life is 4.2 days.

[2] = test system: MDA-MB-468 human breast cancer tumors; assay: micro PET of 124I-PUH71 in mice bearing MDA-MB-468 tumors; format: in vivo
Procedure: FIG. 4: [^124I]-PUH71 PET in mice bearing a xenografted tumor. a) Representative PET scan of [^124I]-PUH71 in MDA-MB-468 tumor-bearing mice. Location of the tumor is indicated by a red arrow. […] Representative data is shown.
We injected mice bearing MDA-MB-468 human breast cancer tumors with trace amounts of ^124I-PUH71, and imaged with the micro PET at 1, 4 and 24 hours post injection. […] The results are illustrated in FIG. 4.

Hsp90 = assay: saturation binding of 131I-PU-H71 in prostate cancer cell lines; conditions: several prostate cancer cell lines
[3] = patients, single iv tracer injection, PET-CT

clearance from the bloodstream (heart muscle; human): rapid clearance | absorption and retention in the human heart (heart muscle; human heart): rapid absorption and sustained retention | persistence of visually-distinct cardiac uptake (heart muscle; [3]): 3 to 4 h | time after injection at which uptake in the heart is maximized (heart muscle; [3]): less than 10 minutes | time for which cardiac signal intensity is maintained (heart muscle; [3]): ≥ 3 h
Compound: CC(C)NCCCn1c(Sc2cc3c(cc2I)OCO3)nc2c(N)ncnc21 [Compound A]
patients whose heart musculature demonstrated visually-distinct uptake (heart muscle; PET scans 0, 10, 20 and ~180 minutes after tracer injection, no EKG-gating): 11 out of 12

stability in formulation [1]: stable, in formulation, for several days | clearance from the healthy heart ([2]; MDA-MB-468 tumor-bearing mice, heart and blood pool similar profile): rapid clearance | uptake in the heart (PET) ([2]; MDA-MB-468 tumor-bearing mice, no cardiac disease expected): no distinct uptake | retention in tumors ([2]; micro PET at 1, 4 and 24 hours post injection): retained in tumors even at 24 h p.i. | route of clearance of excess radioligand ([2]; tumor-bearing mice): cleared via the liver and GI tract
Compound: CC(C)NCCCn1c(Sc2cc3c(cc2[124I])OCO3)nc2c(N)ncnc21 [^124I-PUH71]

Compound: CC(C)NCCCn1c(Sc2cc3c(cc2[131I])OCO3)nc2c(N)ncnc21 [^131I-PUH71]
selectivity of binding to Hsp90 (Hsp90): bound, selectively | Bmax (Hsp90; saturable binding): 3 to 7 million sites, per cell
